# According to patent US4798823A, “New cyclosporin analogs with modified "C-9 amino acids"” (Merck & Co., Inc., priority 1987, dated 1989):
# Molecular target: cyclophilin (Bos taurus, UniProt P62935)
# Experiment: Cyclophilin binding assay
# Conditions: relative to cyclosporin A (CsA); average of multiple assays
# Description: ^a This assay is described in detail by R. Handschumacher et. al.,
# Sequence of cyclophilin (P62935 whole entry): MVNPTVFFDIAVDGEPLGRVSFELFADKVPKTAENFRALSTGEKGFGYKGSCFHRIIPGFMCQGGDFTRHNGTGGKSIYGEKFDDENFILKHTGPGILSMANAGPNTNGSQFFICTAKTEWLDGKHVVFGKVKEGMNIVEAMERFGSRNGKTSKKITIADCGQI
substance,measurement,value
"cyclo[[](((2S,3R,[4R]4S)-N,4-dimethyl-4-(methylthiomethyl)-threonyl)-L-2-aminobutyrylsarcosyl-N-methyl-L-leucyl-L-valyl-N-methyl-L-leucyl-L-alanyl-D- alanyl-N-methyl-L-leucyl-N-methyl-L-leucyl-N-methyl-L-valyl-[]]) [(a)]",CYCLOPHILIN BINDING (% OF CsA Activity),179 % OF CsA Activity
